The values that follow come from ChEMBL document CHEMBL3244324, “Synthesis of analogues of N-(2-chloroethyl)-N'-(trans-4-methylcyclohexyl)-N-nitrosourea for evaluation as anticancer agents” (J Med Chem, 1977).

Data set [1] concerns Mus musculus. As to the kind of experiment: Toxicity in ip dosed BDF1 mouse. It is filed as organism-based. The conditions noted are these: in vivo.
For data set [2], the system named is L1210. The data set can be described thus: Antitumor activity against mouse L1210 cells allografted in ip dosed BDF1 mouse assessed as increase of life span of host measured up to 45 days. The conditions noted are these: 1080 h. The class given is functional.
Data set [3] in a line: Therapeutic index, ratio of LD10 for BDF1 mouse to ED50 for mouse L1210 cells allografted in ip dosed BDF1 mouse. The class given is organism-based. The conditions noted are these: in vivo, read-out: TI.
Data set [4] is described as follows: Octanol-water partition coefficient, log P of the compound. It is filed as physicochemical.
Data set [5] can be described thus: Octanol-water partition coefficient, log P of the compound at pH 7.4. The class given is physicochemical.

The term ED50 denotes the dose that gives a 50% effect, or the effect in half of the subjects. In general, logP refers to a log measure of how a compound divides between an organic and an aqueous phase. Take `O=NN(CCCl)C(=O)N[C@H]1CC[C@H](NC(=O)N(CCCl)N=O)CC1`: the LD10 in data set [1] worked out at 270 mg/kg. In addition, in data set [2], the ED50 amounted to 71 mg/kg. Also, the selectivity ratio in data set [3] is 0.26. The logP in data set [4] (read-out: logP) turned out to be 2.7.
For `C[C@H]1CC[C@H](NC(=O)N(CCCl)N=O)CC1`, in that order: 42 mg/kg, 18 mg/kg, 0.43 and 3.3.
`C[C@H]1S(=O)(=O)C[C@H](NC(=O)N(CCCl)N=O)CS1(=O)=O` gave an LD10 in data set [1] of 51 mg/kg. The 50% effective dose (ED50) in data set [2] came out at 19 mg/kg. Moreover, the selectivity ratio in data set [3] was found to be 0.37. The logP in data set [4] (read-out: logP) was -0.4.
For `O=NN(CCCl)C(=O)N[C@H]1CC[C@H](O)CC1`, in that order: 42 mg/kg, 14 mg/kg, 0.4 and 1.
Taken in the same sequence, the figures for `C[C@H]1S(=O)(=O)C[C@@H](NC(=O)N(CCCl)N=O)CS1(=O)=O` were 36 mg/kg, 18 mg/kg, 0.5 and -0.4.
`O=NN(CCCl)C(=O)N[C@H]1CC[C@H](C[C@H]2CC[C@H](NC(=O)N(CCCl)N=O)CC2)CC1` returned an LD10 in data set [1] of 250 mg/kg. In data set [2], the ED50 amounted to 96 mg/kg. In addition, the selectivity ratio in data set [3] turned out to be 0.38. Also, the logP in data set [4] (read-out: logP) came out at 3.1.
For `O=NN(CCCl)C(=O)N[C@H]1CC[C@H](CCl)CC1`, in that order: 62 mg/kg, 43 mg/kg, 0.69 and 3.7.
For `O=NN(CCCl)C(=O)N[C@H]1CCCC[C@H]1Cl` (relative stereo), in that order: 96 mg/kg, 54 mg/kg, 0.56 and 2.7.
What is called logD is the decadic logarithm of the distribution of all forms, ionised or not, between an organic phase and buffer at a given pH. `O=NN(CCCl)C(=O)N[C@H]1CCC[C@@H](C(=O)O)C1` (relative stereo) came in with an LD10 in data set [1] of 34 mg/kg. The ED50 in data set [2] is 21 mg/kg. Moreover, in data set [3], the selectivity ratio came to 0.62. In data set [5], this compound yielded a logD of -1.1.
On to `O=COC[C@H]1CC[C@H](NC(=O)N(CCCl)N=O)CC1`, for which the LD10 in data set [1] came out at 22 mg/kg. The ED50 in data set [2] came out at 10 mg/kg. Further, the selectivity ratio in data set [3] is 0.45. Besides, in data set [4] (read-out: logP), the logP was found to be 2.6.
In data set [1], `CCCCCC(C)NC(=O)N(CCCl)N=O` (stereo not given) showed an LD10 of 57 mg/kg. In addition, the ED50 in data set [2] was 27 mg/kg. Besides, the logP in data set [4] (read-out: logP) came out at 3.8.
Compound `O=NN(CCCl)C(=O)N[C@H]1CC[C@H](C(=O)O)CC1` came in with an LD10 in data set [1] of 30 mg/kg. Further, the ED50 in data set [2] is 17 mg/kg. Moreover, the selectivity ratio in data set [3] was found to be 0.57. In data set [5], this compound yielded a logD of -1.1.
The compound `CO[C@H]1CC[C@H](NC(=O)N(CCCl)N=O)CC1` registered an LD10 in data set [1] of 44 mg/kg. For the same compound, the 50% effective dose (ED50) in data set [2] stood at 23 mg/kg. The selectivity ratio in data set [3] is 0.52. Further, in data set [4] (read-out: logP), the lipophilicity (logP) is 2.4.
Taken in the same sequence, the figures for `CO[C@H]1CC[C@@H](NC(=O)N(CCCl)N=O)CC1` were 38 mg/kg, 20 mg/kg, 0.53 and 2.4.
Compound `CCOC(=O)[C@@H]1CCC[C@H](NC(=O)N(CCCl)N=O)C1` (relative stereo) had an LD10 in data set [1] of 50 mg/kg. The ED50 in data set [2] amounted to 28 mg/kg. In data set [3], the selectivity ratio came to 0.56. For the same compound, the logP in data set [4] (read-out: logP) was 3.1.
In data set [1], `O=NN(CCCl)C(=O)N[C@H]1CC[C@@H](C(=O)O)CC1` showed an LD10 of 26 mg/kg. Moreover, the ED50 in data set [2] amounted to 16 mg/kg. Further, in data set [3], the selectivity ratio worked out at 0.62. In addition, the logD in data set [5] was -1.1.
Compound `O=NN(CCCl)C(=O)N[C@H]1CC[C@H](CC(=O)O)CC1` registered an LD10 in data set [1] of 40 mg/kg. Moreover, the ED50 in data set [2] was 12 mg/kg. The selectivity ratio in data set [3] stood at 0.3. This compound registered a logD in data set [5] of -0.6.
`O=NN(CCCl)C(=O)NC1CCCCC1` [LOMUSTINE] showed an LD10 in data set [1] of 48 mg/kg. For the same compound, the ED50 in data set [2] was 37 mg/kg. The selectivity ratio in data set [3] turned out to be 0.77. In data set [4] (read-out: logP), the logP was determined as 2.8.
`O=NN(CCCl)C(=O)N[C@H]1CC[C@@H](NC(=O)N(CCCl)N=O)CC1` had an LD10 in data set [1] of 84 mg/kg. Moreover, the ED50 in data set [2] was determined as 40 mg/kg. In addition, in data set [3], the selectivity ratio came out at 0.48. Also, in data set [4] (read-out: logP), the lipophilicity (logP) amounted to 2.7.
Taken in the same sequence, the figures for `C[C@H]1SC[C@@H](NC(=O)N(CCCl)N=O)CS1` were 31 mg/kg, 16 mg/kg, 0.53 and 2.6.
The compound `O=NN(CCF)C(=O)N[C@H]1CC[C@H](C(=O)O)CC1` returned an LD10 in data set [1] of 56 mg/kg. Moreover, the 50% effective dose (ED50) in data set [2] was 30 mg/kg. Besides, the logD in data set [5] was -1.7.
Taken in the same sequence, the figures for `O=NN(CCF)C(=O)N[C@H]1CC[C@@H](C(=O)O)CC1` were 29 mg/kg, 30 mg/kg and -1.7.
Turning to `O=NN(CCCl)C(=O)N[C@H]1CCCC[C@@H]1Cl` (relative stereo), the LD10 in data set [1] came out at 57 mg/kg. The ED50 in data set [2] amounted to 36 mg/kg. In data set [3], the selectivity ratio is 0.63. In data set [4] (read-out: logP), the logP worked out at 2.7.
Compound `COC(=O)[C@H]1CC[C@H](NC(=O)N(CCCl)N=O)CC1` showed an LD10 in data set [1] of 26 mg/kg. Also, the median effective dose (ED50) in data set [2] is 14 mg/kg. Moreover, the selectivity ratio in data set [3] was 0.54. The logP in data set [4] (read-out: logP) was determined as 2.6.
Taken in the same sequence, the figures for `CC(=O)OC[C@H]1CC[C@H](NC(=O)N(CCCl)N=O)CC1` were 28 mg/kg, 14 mg/kg, 0.5 and 3.1.
The compound `CCOC(=O)[C@H]1CC[C@H](NC(=O)N(CCCl)N=O)CC1` returned an LD10 in data set [1] of 33 mg/kg. In data set [2], the ED50 was determined as 17 mg/kg. Also, the selectivity ratio in data set [3] turned out to be 0.52. Besides, the logP in data set [4] (read-out: logP) turned out to be 3.1.
For `C[C@H]1CC[C@H](NC(=O)N(CCF)N=O)CC1`, in that order: 44 mg/kg, 25 mg/kg, 0.57 and 2.7.
Taken in the same sequence, the figures for `CC(=O)O[C@H]1CC[C@H](NC(=O)N(CCCl)N=O)CC1` were 45 mg/kg, 18 mg/kg, 0.4 and 2.6.
`O=NN(CCCl)C(=O)NC(C(=O)O)C1CCCCC1` (stereo not given): the LD10 in data set [1] turned out to be 73 mg/kg. In data set [2], the ED50 was determined as 50 mg/kg. The selectivity ratio in data set [3] is 0.63. In addition, the logD in data set [5] was determined as 0.
As to `O=NN(CCCl)C(=O)N[C@H]1CC[C@@H](CC(=O)O)CC1`, the LD10 in data set [1] is 51 mg/kg. In addition, the 50% effective dose (ED50) in data set [2] was determined as 27 mg/kg. In addition, the selectivity ratio in data set [3] came to 0.53. This compound came in with a logD in data set [5] of -0.6.
Compound `COC(=O)[C@H]1CC[C@@H](NC(=O)N(CCCl)N=O)CC1` yielded an LD10 in data set [1] of 54 mg/kg. Besides, in data set [2], the ED50 was 15 mg/kg. Also, the selectivity ratio in data set [3] amounted to 0.28. For the same compound, the logP in data set [4] (read-out: logP) came to 2.6.
For `C[C@@H]1CCC[C@H](NC(=O)N(CCCl)N=O)C1` (relative stereo), in that order: 120 mg/kg, 45 mg/kg, 0.38 and 3.3.
Taken in the same sequence, the figures for `CC(=O)OC[C@H]1CC[C@H](NC(=O)N(CCF)N=O)CC1` were 57 mg/kg, 45 mg/kg, 0.79 and 2.5.
Taken in the same sequence, the figures for `CC(=O)O[C@H]1CC[C@H](NC(=O)N(CCF)N=O)CC1` were 36 mg/kg, 18 mg/kg, 0.5 and 2.
Consider `O=NN(CCCl)C(=O)NCCCl` [CARMUSTINE], for which the LD10 in data set [1] turned out to be 41 mg/kg. Besides, the ED50 in data set [2] stood at 20 mg/kg. In data set [3], the selectivity ratio was 0.49. Moreover, the logP in data set [4] (read-out: logP) was found to be 1.5.
Turning to `C[C@H]1CCC[C@H](NC(=O)N(CCCl)N=O)C1` (relative stereo), in data set [1], the LD10 stood at 110 mg/kg. Besides, the ED50 in data set [2] is 53 mg/kg. Further, the selectivity ratio in data set [3] is 0.48. Further, in data set [4], the lipophilicity (logP) amounted to 3.3.
Take `O=NN(CCCl)C(=O)N[C@H]1CC[C@@H](O)CC1`: in data set [1], the LD10 came to 46 mg/kg. Moreover, in data set [2], the ED50 is 22 mg/kg. Further, the selectivity ratio in data set [3] was 0.48. For the same compound, in data set [4] (read-out: logP), the logP came out at 1.1.
